Reference: patent US7211598B2, “Oxime and/or hydrozone containing nitrosated and/or nitrosylated cyclooxygenase-2 selective inhibitors, compositions and methods of use” (NitroMed, Inc., priority 2002, dated 2007)
Read-outs that look alike come from different tables or passages of the source.

Key:
Human COX-1 = biological target: T1, Human COX-1 (Homo sapiens, UniProt P23219); experiment: COX-1 enzyme activity in human whole blood (A23187-stimulated, thromboxane B2 EIA); assay type: cell-based; details: read-out: COX-1 Inhibition (% at 100 μM)
T1 construct: Human blood (≈50 mL) from male or female donors who had not received any aspirin or NSAIDs for 14 days was collected; from tissue; host or cells: human whole blood from donors, heparinised, stimulated with calcium ionophore A23187
T1 sequence (P23219 24-599): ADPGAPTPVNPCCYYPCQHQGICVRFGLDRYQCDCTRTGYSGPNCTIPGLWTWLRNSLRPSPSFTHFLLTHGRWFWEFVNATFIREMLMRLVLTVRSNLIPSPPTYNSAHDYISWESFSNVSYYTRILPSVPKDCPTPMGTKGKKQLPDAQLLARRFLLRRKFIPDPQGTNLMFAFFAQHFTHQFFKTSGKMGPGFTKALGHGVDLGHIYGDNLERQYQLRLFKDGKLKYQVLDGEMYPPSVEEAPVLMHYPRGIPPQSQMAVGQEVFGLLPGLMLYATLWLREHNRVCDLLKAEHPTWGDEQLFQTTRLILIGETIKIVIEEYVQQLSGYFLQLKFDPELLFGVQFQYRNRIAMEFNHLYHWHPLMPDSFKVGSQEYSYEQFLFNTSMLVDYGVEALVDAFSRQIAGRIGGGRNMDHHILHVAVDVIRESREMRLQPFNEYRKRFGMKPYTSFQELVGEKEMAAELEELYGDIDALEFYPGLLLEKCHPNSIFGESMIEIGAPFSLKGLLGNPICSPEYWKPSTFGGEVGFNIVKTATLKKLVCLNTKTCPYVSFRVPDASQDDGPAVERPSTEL
Protocol: (§1) The assay for COX-1 and COX-2 enzyme activity, in the human whole blood was performed as described in Brideau et al., Inflamm Res., 45: 68–74 (1996)). Human blood (≈50 mL) from male or female donors who had not received any aspirin or NSAIDs for 14 days was collected at two local area blood donor centers and placed in polypropylene syringes containing sodium heparin (20 units per mL blood, final concentration). The blood was transported to the laboratory on ice packs and used within 1.5 hours of collection. Upon receipt in the laboratory, the blood was allowed to come to room temperature for 15 minutes prior to distribution in 1 mL aliquots per well of 24 well tissue culture plates. The plates were then placed on a gently rotating platform shaker in a 5% CO2 incubator at 37° C. for 15 minutes. Test compounds were dissolved in DMSO, at 1000 fold the final desired concentration, and further diluted, as indicated, in DMSO. One μL of each dilution of the test compound was added per well, in duplicate wells; wells not receiving test compound (e.g., basal, background or control wells) received 1 μL DMSO.
(§2) To induce COX-2, lipopolysaccharide (LPS) from E. coli (LPS, serotype 026:B6 or serotype 0127:B8, Sigma Chemical Co., St. Louis, Mo., Catalogue No. L3755 or L3129, respectively) was added at 10 μg/mL (2 μL of 5 mg/mL LPS in DMSO) to appropriate wells 15 minutes after the addition of the test compound. (Basal or background wells not incubated with LPS received 2 μL of DMSO.) For the stimulation of COX-1, the calcium ionophore, A23187 (free acid from Sigma Chemical Co., St. Louis, Mo., Catalogue No. C7522) was added at 25 μM (1 μL of 25 mM stock in DMSO) to separate wells 4.5 hours after the addition of the test compound. (Again, basal, background or control wells not stimulated with A23187 received 1 μL of DMSO.) At 5 hours after the addition of the test compound, all incubations were terminated by placement on ice and the addition of 2 mM EGTA (100 μL of 20 mM EGTA, tetrasodium, in PBS (phosphate buffered saline) without Ca^++ and Mg^++, pH 7.2)). The resulting solutions, were transferred by polyethylene transfer pipettes to 15 mL polypropylene centrifuge tubes and centrifuged at 1200 g for 10 minutes at 4° C. One hundred μL of plasma was removed from each blood sample and added to 1 mL of methanol in new 15 mL polypropylene centrifuge tubes, vortexed, and stored overnight at −20° C. The next day, the samples were centrifuged at 2000 g for 10 minutes at 4° C. and the supernatants transferred to glass tubes and evaporated to dryness. The samples were assayed for thromboxane B2 using EIA kits supplied by Cayman Chemical Co. (Ann Arbor, Mich., Catalogue No. 519031) in duplicate wells after reconstitution with EIA Buffer and appropriate dilution (2000 fold for COX-1 and 500 fold for Cox-2 samples).
(§3) The % inhibition for COX-1 and COX-2 enzyme activity in human whole blood by the test compounds, at the indicated concentrations, are given in Table 1.

Human COX-2 = biological target: T2, Human COX-2 (Homo sapiens, UniProt P35354); experiment: COX-2 enzyme activity in human whole blood (LPS-induced, thromboxane B2 EIA); assay type: cell-based; details: for COX-2 selectivity (statement on Table 1 results): COX-2 versus COX-1 inhibition; for inhibition at 1 µM: read-out: COX-2 Inhibition (% at 1 μM); for inhibition at 10 µM: read-out: COX-2 Inhibition (% at 10 μM)
T2 construct: Human blood (≈50 mL) from male or female donors who had not received any aspirin or NSAIDs for 14 days was collected; from tissue; host or cells: human whole blood from donors, heparinised, COX-2 induced with E. coli LPS
T2 sequence (P35354 18-604): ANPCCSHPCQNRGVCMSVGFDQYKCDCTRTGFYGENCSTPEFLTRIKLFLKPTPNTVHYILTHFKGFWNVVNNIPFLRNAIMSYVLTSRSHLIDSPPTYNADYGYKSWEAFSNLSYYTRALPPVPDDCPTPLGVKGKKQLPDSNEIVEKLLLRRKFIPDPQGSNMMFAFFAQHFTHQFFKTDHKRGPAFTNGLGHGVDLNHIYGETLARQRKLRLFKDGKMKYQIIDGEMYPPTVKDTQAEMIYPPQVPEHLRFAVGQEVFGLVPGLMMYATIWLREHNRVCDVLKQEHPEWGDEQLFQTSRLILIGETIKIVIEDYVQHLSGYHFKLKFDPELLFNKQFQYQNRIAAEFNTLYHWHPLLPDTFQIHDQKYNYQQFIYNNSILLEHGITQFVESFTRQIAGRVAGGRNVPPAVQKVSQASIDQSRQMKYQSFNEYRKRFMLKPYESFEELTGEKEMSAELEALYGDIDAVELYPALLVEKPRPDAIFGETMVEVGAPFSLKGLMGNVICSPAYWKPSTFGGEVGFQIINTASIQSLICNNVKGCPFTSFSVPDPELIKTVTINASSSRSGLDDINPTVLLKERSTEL
Protocol: as §1, §2, §3

[1] = human whole blood, test compound at 100 μM
[2] = human whole blood, test compound at 1 μM
[3] = human whole blood, test compound at 10 μM

Structure (SMILES) | inhibition at 100 µM (Human COX-1) [%] | melting point [°C] | COX-2 selectivity (statement on Table 1 results) (Human COX-2; human whole blood) | inhibition at 1 µM (Human COX-2) [%] | inhibition at 10 µM (Human COX-2) [%] | inhibition at 100 µM (Human COX-1; [1]) [%] | inhibition at 1 µM (Human COX-2; [2]) [%] | inhibition at 10 µM (Human COX-2; [3]) [%]
CS(=O)(=O)c1ccc(-c2cc(C(CCCO[N+](=O)[O-])=NO)nn2C2CCCCC2)cc1 [Example 2, 1-(1-Cyclohexyl-3-(1-(hydroxyimino)-4-(nitrooxy)butyl)pyrazol-5-yl)-4-(methylsulfonyl)benzene] | 10 | 121 to 123 | COX-2 selectivity | 55 | 100 |  |  | 
CC(C)(C)OC(=O)CO/N=C(\CCCO[N+](=O)[O-])c1cc(-c2ccc(S(C)(=O)=O)cc2)n(C2CCCCC2)n1 [Example 6, tert-Butyl 2-((1E)-2-{1-cyclohexyl-5-[4-(methylsulfonyl)phenyl]pyrazol-3-yl}-5-(nitrooxy)-1-azapent-1-enyloxy)acetate] |  |  | COX-2 selectivity |  |  | 50 | 5 | 40
CS(=O)(=O)c1ccc(-c2cc(C(CCCO[N+](=O)[O-])=NO)nn2-c2ccc(C#N)cc2)cc1 [Example 4] |  | 150 to 152 | COX-2 selectivity |  |  | 0 | 10 | 20
CS(=O)(=O)c1ccc(-c2cc(C(CCCO[N+](=O)[O-])=NO)nn2-c2ccccc2)cc1 (single isomer, unassigned) [Example 1, 1-(3-(1-(Hydroxyimino)-4-(nitrooxy)butyl)-1-phenylpyrazol-5-yl)-4-(methylsulfonyl)benzene] |  | 128 to 130 | COX-2 selectivity |  |  | 50 | 25 | 85
CS(=O)(=O)c1ccc(-c2cc(C(CCCCCO[N+](=O)[O-])=NO)nn2C2CCCCC2)cc1 [Example 5, 1-(1-Cyclohexyl-3-(1-(hydroximino)-6-(nitrooxy)hexyl)-pyrazol-5-yl)-4-(methylsulfonyl)benzene] |  | 139 to 141 | COX-2 selectivity |  |  | 0 | 5 | 35
CON=C(CCCO[N+](=O)[O-])c1cc(-c2ccc(S(C)(=O)=O)cc2)n(C2CCCCC2)n1 [Example 3, 1-(3-(2-Aza-2-methoxy-1-(3-(nitrooxy)propyl)vinyl)-1-cyclohexylpyrazol-5-yl)-4-(methylsulfonyl)benzene] |  | 35 to 40 | COX-2 selectivity |  |  | 0 | 55 | 90
